Measured values reported in patent US10316020B2, “Indane derivatives and the use thereof as soluble guanylate cyclase activators” (NOVARTIS AG, priority 2015, dated 2019).

These compounds were tested against T1, soluble guanylate cyclase (GUCYA3/GUCYB3) overexpressed in CHO cells (Homo sapiens, UniProt Q02108+Q02153) (assay: CHO cellular assay (cGMP production, HTRF)). Conditions: CHO GUCY clone 8E10; assay buffer with 1 mM IBMX, 20 uM ODQ; 1 h at room temperature; cGMP HTRF; quantification limit 0.0005 μM; read-out: Mean EC50.
T1 construct: expressed in transfected cells
T1 sequence (Q02108 1-690 partner): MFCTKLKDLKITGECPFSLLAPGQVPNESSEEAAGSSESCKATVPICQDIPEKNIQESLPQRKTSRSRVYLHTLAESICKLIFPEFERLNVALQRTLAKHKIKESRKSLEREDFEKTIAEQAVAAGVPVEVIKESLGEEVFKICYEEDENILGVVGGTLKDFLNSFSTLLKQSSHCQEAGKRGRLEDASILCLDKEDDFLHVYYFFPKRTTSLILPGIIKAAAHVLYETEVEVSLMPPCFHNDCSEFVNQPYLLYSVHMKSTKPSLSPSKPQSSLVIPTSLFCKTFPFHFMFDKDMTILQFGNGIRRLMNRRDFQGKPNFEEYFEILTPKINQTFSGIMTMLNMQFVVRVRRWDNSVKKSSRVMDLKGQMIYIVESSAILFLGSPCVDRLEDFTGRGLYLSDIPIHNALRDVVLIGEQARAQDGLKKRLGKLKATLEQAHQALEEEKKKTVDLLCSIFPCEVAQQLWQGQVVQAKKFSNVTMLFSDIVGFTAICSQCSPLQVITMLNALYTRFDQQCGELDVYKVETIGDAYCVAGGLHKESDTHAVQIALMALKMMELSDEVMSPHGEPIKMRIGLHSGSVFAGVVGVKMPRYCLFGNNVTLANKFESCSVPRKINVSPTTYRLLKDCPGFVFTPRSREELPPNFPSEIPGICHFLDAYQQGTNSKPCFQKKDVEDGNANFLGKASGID
T1 sequence (Q02153 1-619): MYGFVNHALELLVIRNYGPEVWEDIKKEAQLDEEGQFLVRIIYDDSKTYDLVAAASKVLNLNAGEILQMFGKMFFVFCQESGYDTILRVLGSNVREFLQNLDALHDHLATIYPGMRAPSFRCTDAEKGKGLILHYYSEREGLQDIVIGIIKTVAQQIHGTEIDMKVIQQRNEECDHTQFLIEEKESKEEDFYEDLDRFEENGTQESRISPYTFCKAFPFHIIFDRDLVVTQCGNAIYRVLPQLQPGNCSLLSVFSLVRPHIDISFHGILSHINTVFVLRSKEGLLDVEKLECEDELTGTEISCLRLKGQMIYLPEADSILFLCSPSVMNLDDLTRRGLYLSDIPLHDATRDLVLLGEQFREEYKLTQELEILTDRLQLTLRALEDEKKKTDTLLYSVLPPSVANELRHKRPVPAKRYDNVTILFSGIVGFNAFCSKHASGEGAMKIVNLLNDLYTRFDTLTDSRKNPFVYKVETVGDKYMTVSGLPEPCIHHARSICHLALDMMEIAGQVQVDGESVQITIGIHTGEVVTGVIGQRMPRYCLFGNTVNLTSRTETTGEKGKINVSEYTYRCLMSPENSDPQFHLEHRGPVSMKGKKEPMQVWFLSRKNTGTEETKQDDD
Type: cell-based
Excerpt: Chinese hamster ovary (CHO) cells overexpressing soluble guanylate cyclase were generated to test the effect of sGC activators in a cellular context. Human cDNAs for GUCYA3 (RefSeq: NM_000856.3) and GUCYB3 (RefSeq: NM_000857.1) were amplified by PCR from a HUVEC (Human Umbilical Vein Endothelial Cells) cDNA library and cloned into mammalian expression vectors. CHO K1 cells (ATCC CCL-61) were transfected using Lipofectamine 2000 following manufacturer's instructions and stably expressing clones were identified by antibiotic selection. CHO GUCY clone 8E10 was used for subsequent experiments.
Cells were seeded at a density of 3000 cells/well in white 384-well proxyplates (Perkin Elmer) and incubated overnight, then the medium was removed and cells were washed with assay buffer (HBSS, 0.1% BSA, 1 mM IBMX, 20 uM ODQ). sGC activators were serially diluted in DMSO, then diluted in assay buffer prior to adding to cells (10 ul/well, final DMSO concentration 0.5%). Cells were incubated with compounds for 1 h at room temperature, then assayed for cGMP production using Cisbio cGMP HTRF kit (62GM2PEC) according to manufacturer's instructions.
The EC50s are calculated based on the amount of cGMP interpolated from the standard curve, using a 4-parameter sigmoidal dose-response.
Compounds of invention are active on sGC activation. Data in Table 1 collected using the assay of Biological Example 1.
In the case of `CCc1nc(NC2CCc3cccc(-c4cccc(-n5ncc(C(=O)O)c5OC)n4)c32)ccc1C1=CCN(C(=O)C2CC2)CC1` (single isomer, unassigned; (-)) [Example 16B, (−)-1-(6-(3-((1′-(Cyclopropanecarbonyl)-2-ethyl-1′,2′,3′,6′-tetrahydro-[3,4′-bipyridin]-6-yl)amino)-2,3-dihydro-1H-inden-4-yl)pyridin-2-yl)-5-methoxy-1H-pyrazole-4-carboxylic acid], the EC50 is reported as 279 nM.
In the case of `CCc1cc(NC2CCc3cccc(-c4cccc(-n5ncc(C(=O)O)c5N)n4)c32)ccc1C1CCN(C(=O)C2CC2)CC1` (single isomer, unassigned; (-)) [Example 18B, (−)-5-Amino-1-(6-(3-((4-(1-(cyclopropanecarbonyl)piperidin-4-yl)-3-ethylphenyl)amino)-2,3-dihydro-1H-inden-4-yl)pyridin-2-yl)-1H-pyrazole-4-carboxylic acid], the EC50 is reported as 31 nM.
In the case of `CCc1nc(NC2CCc3cccc(-c4cccc(-n5ncc(C(=O)O)c5NC)c4)c32)ccc1C1=CCN(C(=O)C2CC2)CC1` (single isomer, unassigned; (-)) [Example 22B, (−)-1-(3-(3-((1′-(Cyclopropanecarbonyl)-2-ethyl-1′,2′,3′,6′-tetrahydro-[3,4′-bipyridin]-6-yl)amino)-2,3-dihydro-1H-inden-4-yl)phenyl)-5-(methylamino)-1H-pyrazole-4-carboxylic acid], the EC50 is reported as 40.4 nM.
Work on `CCc1cc(NC2CCc3cccc(-c4cccc(-n5ncc(C(=O)O)c5NC)c4)c32)ccc1C1CCN(C(=O)C2CC2)CC1` (single isomer, unassigned; enantiomer-1) [Example 12A, (enantiomer-1)-1-(3-(3-((4-(1-(Cyclopropanecarbonyl)piperidin-4-yl)-3-ethylphenyl)amino)-2,3-dihydro-1H-inden-4-yl)phenyl)-5-(methylamino)-1H-pyrazole-4-carboxylic acid] yielded an EC50 of 53 nM.
`CCc1cc(NC2CCc3cccc(-c4cccc(-n5ncc(C(=O)O)c5NC)c4)c32)ccc1C1CCN(C(=O)C2CC2)CC1` (single isomer, unassigned; enantiomer-2) [Example 12B, (enantiomer-2)-1-(3-(3-((4-(1-(Cyclopropanecarbonyl)piperidin-4-yl)-3-ethylphenyl)amino)-2,3-dihydro-1H-inden-4-yl)phenyl)-5-(methylamino)-1H-pyrazole-4-carboxylic acid] showed an EC50 of less than 0.5 nM.
`CCc1cc(C[C@@H]2CCc3cccc(-c4cccc(-n5ncc(C(=O)O)c5OC)c4)c32)ccc1C1CCN(C(=O)C2CC2)CC1` [Example 1B, (−)-(S)-1-(3-(3-(4-(1-(Cyclopropanecarbonyl)piperidin-4-yl)-3-ethylbenzyl)-2,3-dihydro-1H-inden-4-yl)phenyl)-5-methoxy-1H-pyrazole-4-carboxylic acid] showed an EC50 of 16 nM.
Compound `CCc1cc(C[C@H]2CCc3cccc(-c4cccc(-n5ncc(C(=O)O)c5OC)c4)c32)ccc1C1CCN(C(=O)[C@H](C)O)CC1` [Example 2A, (+)-1-(3-((R)-3-(3-Ethyl-4-(1-((S)-2-hydroxypropanoyl)piperidin-4-yl)benzyl)-2,3-dihydro-1H-inden-4-yl)phenyl)-5-methoxy-1H-pyrazole-4-carboxylic acid] has an EC50 of less than 0.5 nM.
`CCc1cc(C[C@@H]2CCc3cccc(-c4cccc(-n5ncc(C(=O)O)c5OC)c4)c32)ccc1C1CCN(C(=O)[C@H](C)O)CC1` [Example 2B, (−)-1-(3-((S)-3-(3-Ethyl-4-(1-((S)-2-hydroxypropanoyl)piperidin-4-yl)benzyl)-2,3-dihydro-1H-inden-4-yl)phenyl)-5-methoxy-1H-pyrazole-4-carboxylic acid] gave an EC50 of 34 nM.
Work on `CCc1cc(N[C@@H]2CCc3cccc(-c4cccc(-n5ncc(C(=O)O)c5OC)c4)c32)ccc1C1CCN(C(=O)C2CC2)CC1` [Example 3B, (−)-(R)-1-(3-(3-((4-(1-(Cyclopropanecarbonyl)piperidin-4-yl)-3-ethylphenyl)amino)-2,3-dihydro-1H-inden-4-yl)phenyl)-5-methoxy-1H-pyrazole-4-carboxylic acid] yielded an EC50 of 29 nM.
Compound `CCc1cc(O[C@H]2CCc3cccc(-c4cccc(-n5ncc(C(=O)O)c5OC)c4)c32)ccc1C1CCN(C(=O)[C@H](C)O)CC1` [Example 6, 1-(3-((S)-3-(3-Ethyl-4-(1-((S)-2-hydroxypropanoyl)piperidin-4-yl)phenoxy)-2,3-dihydro-1H-inden-4-yl)phenyl)-5-methoxy-1H-pyrazole-4-carboxylic acid] has an EC50 of less than 0.5 nM.
Work on `CCc1cc(C[C@H]2CCc3cccc(-c4cccc(-n5ncc(C(=O)O)c5OC)n4)c32)ccc1C1CCN(C(=O)C2CC2)CC1` [Example 13, (+)-(R)-1-(6-(3-(4-(1-(Cyclopropanecarbonyl)piperidin-4-yl)-3-ethylbenzyl)-2,3-dihydro-1H-inden-4-yl)pyridin-2-yl)-5-methoxy-1H-pyrazole-4-carboxylic acid] yielded an EC50 of less than 0.5 nM.
For `CCc1cc(O[C@H]2CCc3cccc(-c4cccc(-n5ncc(C(=O)O)c5OC)n4)c32)ccc1C1CCN(C(=O)C2CC2)CC1` [Example 14, (S)-1-(6-(3-(4-(1-(Cyclopropanecarbonyl)piperidin-4-yl)-3-ethylphenoxy)-2,3-dihydro-1H-inden-4-yl)pyridin-2-yl)-5-methoxy-1H-pyrazole-4-carboxylic acid], the EC50 was less than 0.5 nM.
In the case of `CCc1cc(O[C@H]2CCc3cccc(-c4cccc(-n5ncc(C(=O)O)c5OC)n4)c32)ccc1C1CCN(C(=O)[C@H](C)O)CC1` [Example 15, 1-(6-((S)-3-(3-Ethyl-4-(1-((S)-2-hydroxypropanoyl)piperidin-4-yl)phenoxy)-2,3-dihydro-1H-inden-4-yl)pyridin-2-yl)-5-methoxy-1H-pyrazole-4-carboxylic acid], the EC50 is reported as 1 nM.
With `CCc1cc(O[C@H]2CCc3cccc(-c4cccc(-n5ncc(C(=O)O)c5N)n4)c32)ccc1C1CCN(C(=O)C2CC2)CC1` [Example 19, (S)-5-Amino-1-(6-(3-(4-(1-(cyclopropanecarbonyl)piperidin-4-yl)-3-ethylphenoxy)-2,3-dihydro-1H-inden-4-yl)pyridin-2-yl)-1H-pyrazole-4-carboxylic acid] the EC50 was 3 nM.
`CCc1cc(C[C@H]2CCc3cccc(-c4cccc(-n5ncc(C(=O)O)c5N)c4)c32)ccc1C1CCN(C(=O)C2CC2)CC1` [Example 20, (+)-(R)-5-Amino-1-(3-(3-(4-(1-(cyclopropanecarbonyl)piperidin-4-yl)-3-ethylbenzyl)-2,3-dihydro-1H-inden-4-yl)phenyl)-1H-pyrazole-4-carboxylic acid] gave an EC50 of less than 0.5 nM.
Compound `CCc1cc(C[C@H]2CCc3cccc(-c4cccc(-n5ncc(C(=O)O)c5NC)c4)c32)ccc1C1CCN(C(=O)C2CC2)CC1` [Example 21, (R)-1-(3-(3-(4-(1-(cyclopropanecarbonyl)piperidin-4-yl)-3-ethylbenzyl)-2,3-dihydro-1H-inden-4-yl)phenyl)-5-(methylamino)-1H-pyrazole-4-carboxylic acid] has an EC50 of less than 0.5 nM.
Compound `CCc1cc(C[C@H]2CCc3cccc(-c4cccc(-n5ncc(C(=O)O)c5N)n4)c32)ccc1C1CCN(C(=O)C2CC2)CC1` [Example 23, (R)-5-Amino-1-(6-(3-(4-(1-(cyclopropanecarbonyl)piperidin-4-yl)-3-ethylbenzyl)-2,3-dihydro-1H-inden-4-yl)pyridin-2-yl)-1H-pyrazole-4-carboxylic acid] has an EC50 of less than 0.5 nM.
